Reference: patent US11178868B2, “Alkynyl-substituted 3-phenylpyrrolidine-2,4-diones and use thereof as herbicides” (Bayer CropScience Aktiengesellschaft, priority 2015, dated 2021)

Assays:
Assay type in all cases: in vivo
Setaria viridis [1] = assay: Pre-emergence herbicidal effect; settings: scored visually after 3 weeks
Source text: (§1) Seeds of monocotyledonous and dicotyledonous weed plants and crop plants are laid out in wood-fibre pots in sandy loam and covered with soil. The compounds according to the invention formulated in the form of wettable powders (WP) or as emulsion concentrates (EC) are then applied as aqueous suspension or emulsion at a water application rate of 600 to 800 I/ha (converted) with the addition of 0.2% wetting agent to the surface of the covering soil. After the treatment, the pots are placed in a greenhouse and kept under good growth conditions for the trial plants. The damage to the test plants is scored visually after a test period of 3 weeks by comparison with untreated controls (herbicidal activity in percent (%): 100% activity=the plants have died, 0% activity=like control plants).

Echinochloa crus-galli [2] = assay: Pre-emergence herbicidal effect; settings: scored visually after 3 weeks
Source text: as §1

Avena fatua [3] = assay: Pre-emergence herbicidal effect; settings: scored visually after 3 weeks
Source text: as §1

Alopecurus myosuroides [4] = assay: Pre-emergence herbicidal effect; settings: scored visually after 3 weeks
Source text: as §1

Lolium multiflorum [5] = assay: Pre-emergence herbicidal effect; settings: scored visually after 3 weeks
Source text: as §1

Setaria viridis [6] = assay: Post-emergence herbicidal effect; settings: assessed visually after about 3 weeks
Protocol: (§2) Seeds of monocotyledonous and dicotyledonous weed and crop plants are laid out in sandy loam in wood-fibre pots, covered with soil and cultivated in a greenhouse under good growth conditions. 2 to 3 weeks after sowing, the test plants are treated at the one-leaf stage. The compounds according to the invention, formulated in the form of wettable powders (WP) or as emulsion concentrates (EC), are then sprayed as aqueous suspension or emulsion at a water application rate of 600 to 800 I/ha (converted) with the addition of 0.2% of wetting agent onto the green parts of the plants. After the test plants have been left to stand in the greenhouse under optimal growth conditions for about 3 weeks, the action of the preparations is assessed visually in comparison to untreated controls (herbicidal action in percent (%): 100% activity=the plants have died, 0% activity=like control plants).

Echinochloa crus-galli [7] = assay: Post-emergence herbicidal effect; settings: assessed visually after about 3 weeks
Protocol: as §2

Amaranthus retroflexus = assay: Post-emergence herbicidal effect; settings: assessed visually after about 3 weeks
Protocol: as §2

Avena fatua [8] = assay: Post-emergence herbicidal effect; settings: assessed visually after about 3 weeks
Protocol: as §2

Alopecurus myosuroides [9] = assay: Post-emergence herbicidal effect; settings: assessed visually after about 3 weeks
Protocol: as §2

Lolium multiflorum [10] = assay: Post-emergence herbicidal effect; settings: assessed visually after about 3 weeks
Protocol: as §2

Polygonum convolvulus = assay: Post-emergence herbicidal effect; settings: 80 g a.i./ha, assessed visually after about 3 weeks
Protocol: as §2

Cyperus esculentus = assay: Pre-emergence herbicidal effect; settings: 320 g a.i./ha, scored visually after 3 weeks
Source text: as §1

Question: Which “Herbicidal effect against [%] SETVI” value (Setaria viridis [1]; 80 g a.i./ha) does the source give for CC#Cc1cc(C)c(C2=C(OC(=O)OCC)C3(CCCC(OCCOC)C3)NC2=O)c(C)c1 (centres unmarked) [Example P15] here?
Answer: Its value is 100%.

Question: What about the “Herbicidal effect against [%] SETVI” value (Setaria viridis [1]; 320 g a.i./ha) of the same compound?
Answer: Its value is 100%.

Question: What about the “Herbicidal effect against [%] ECHCG” value (Echinochloa crus-galli [2]; 80 g a.i./ha) of the same compound?
Answer: Its value is 100%.

Question: And the “Herbicidal effect against [%] ECHCG” value (Echinochloa crus-galli [2]; 320 g a.i./ha)?
Answer: The value was 100%.

Question: And the “Herbicidal effect against [%] AVEFA” value (Avena fatua [3]; 80 g a.i./ha)?
Answer: Its value is 100%.

Question: What about the “Herbicidal effect against [%] AVEFA” value (Avena fatua [3]; 320 g a.i./ha) of the same compound?
Answer: The value was 100%.

Question: And the “Herbicidal effect against [%] ALOMY” value (Alopecurus myosuroides [4]; 80 g a.i./ha)?
Answer: The value was 100%.

Question: What about the “Herbicidal effect against [%] ALOMY” value (Alopecurus myosuroides [4]; 320 g a.i./ha) of the same compound?
Answer: The value was 100%.

Question: What about the “Herbicidal effect against [%] LOLMU” value (Lolium multiflorum [5]; 80 g a.i./ha) of the same compound?
Answer: The value was 100%.

Question: And the “Herbicidal effect against [%] LOLMU” value (Lolium multiflorum [5]; 320 g a.i./ha)?
Answer: Its value is 100%.

Question: And the “Herbicidal effect against [%] SETVI” value (Setaria viridis [6]; 20 g a.i./ha)?
Answer: Its value is 100%.

Question: And the “Herbicidal effect against [%] SETVI” value (Setaria viridis [6]; 80 g a.i./ha)?
Answer: Its value is 100%.

Question: What about the “Herbicidal effect against [%] ECHCG” value (Echinochloa crus-galli [7]; 20 g a.i./ha) of the same compound?
Answer: The value was 100%.

Question: And the “Herbicidal effect against [%] ECHCG” value (Echinochloa crus-galli [7]; 80 g a.i./ha)?
Answer: Its value is 100%.

Question: And the “Herbicidal effect against [%] AMARE” value (Amaranthus retroflexus; 20 g a.i./ha)?
Answer: Its value is 80%.

Question: What about the “Herbicidal effect against [%] AMARE” value (Amaranthus retroflexus; 80 g a.i./ha) of the same compound?
Answer: Its value is 80%.

Question: What about the “Herbicidal effect against [%] AVEFA” value (Avena fatua [8]; 20 g a.i./ha) of the same compound?
Answer: The value was 100%.

Question: What about the “Herbicidal effect against [%] AVEFA” value (Avena fatua [8]; 80 g a.i./ha) of the same compound?
Answer: The value was 100%.

Question: What about the “Herbicidal effect against [%] ALOMY” value (Alopecurus myosuroides [9]; 20 g a.i./ha) of the same compound?
Answer: The value was 100%.

Question: And the “Herbicidal effect against [%] ALOMY” value (Alopecurus myosuroides [9]; 80 g a.i./ha)?
Answer: The value was 100%.

Question: What about the “Herbicidal effect against [%] LOLMU” value (Lolium multiflorum [10]; 20 g a.i./ha) of the same compound?
Answer: Its value is 100%.

Question: And the “Herbicidal effect against [%] LOLMU” value (Lolium multiflorum [10]; 80 g a.i./ha)?
Answer: The value was 100%.

Question: What about the “Herbicidal effect against [%] POLCO” value (Polygonum convolvulus) of the same compound?
Answer: The value was 80%.

Question: Which results are given for CC#Cc1cc(C)c(C2=C(O)C3(CCCC(OCCOC)C3)NC2=O)c(C)c1 (centres unmarked) [Example D6]?
Answer: Herbicidal effect against [%] SETVI (Setaria viridis [1]; 80 g a.i./ha): 100%; Herbicidal effect against [%] SETVI (Setaria viridis [1]; 320 g a.i./ha): 100%; Herbicidal effect against [%] ECHCG (Echinochloa crus-galli [2]; 80 g a.i./ha): 100%; Herbicidal effect against [%] ECHCG (Echinochloa crus-galli [2]; 320 g a.i./ha): 100%; Herbicidal effect against [%] AVEFA (Avena fatua [3]; 80 g a.i./ha): 100%; Herbicidal effect against [%] AVEFA (Avena fatua [3]; 320 g a.i./ha): 100%; Herbicidal effect against [%] ALOMY (Alopecurus myosuroides [4]; 80 g a.i./ha): 100%; Herbicidal effect against [%] ALOMY (Alopecurus myosuroides [4]; 320 g a.i./ha): 100%; Herbicidal effect against [%] LOLMU (Lolium multiflorum [5]; 80 g a.i./ha): 100%; Herbicidal effect against [%] LOLMU (Lolium multiflorum [5]; 320 g a.i./ha): 100%; Herbicidal effect against [%] CYPES (Cyperus esculentus): 90%; Herbicidal effect against [%] SETVI (Setaria viridis [6]; 20 g a.i./ha): 100%; Herbicidal effect against [%] SETVI (Setaria viridis [6]; 80 g a.i./ha): 100%; Herbicidal effect against [%] ECHCG (Echinochloa crus-galli [7]; 20 g a.i./ha): 100%; Herbicidal effect against [%] ECHCG (Echinochloa crus-galli [7]; 80 g a.i./ha): 100%; Herbicidal effect against [%] AMARE (Amaranthus retroflexus; 20 g a.i./ha): 80%; Herbicidal effect against [%] AMARE (Amaranthus retroflexus; 80 g a.i./ha): 80%; Herbicidal effect against [%] AVEFA (Avena fatua [8]; 20 g a.i./ha): 100%; Herbicidal effect against [%] AVEFA (Avena fatua [8]; 80 g a.i./ha): 100%; Herbicidal effect against [%] ALOMY (Alopecurus myosuroides [9]; 20 g a.i./ha): 100%; Herbicidal effect against [%] ALOMY (Alopecurus myosuroides [9]; 80 g a.i./ha): 100%; Herbicidal effect against [%] LOLMU (Lolium multiflorum [10]; 20 g a.i./ha): 100%; Herbicidal effect against [%] LOLMU (Lolium multiflorum [10]; 80 g a.i./ha): 100%; Herbicidal effect against [%] POLCO (Polygonum convolvulus): 80%
